What was measured:
[1] = target: T1, IFN-γ-induced IDO enzyme in HeLa cells (Homo sapiens, UniProt P14902); assay: Detection of IDO inhibitory activity at the cellular level (IFN-γ-induced HeLa cells); format: cell-based; conditions: 48 hours; for inhibition at 1 µM: tested compound 1 μM, human IFN-γ 50 ng/ml, read-out: IDO Inhibitory Rate (%) (1 μM); for EC50: human IFN-γ induced, read-out: IDO EC50 (nM) at the Cellular Level (column head: IC50 (nM))
T1 construct: HeLa cells are human cervical cancer cell lines and can up-regulate the expression of endogenous IDO enzymes; endogenous in cells; host or cells: HeLa cells stimulated with human IFN-γ
T1 sequence (P14902 whole entry): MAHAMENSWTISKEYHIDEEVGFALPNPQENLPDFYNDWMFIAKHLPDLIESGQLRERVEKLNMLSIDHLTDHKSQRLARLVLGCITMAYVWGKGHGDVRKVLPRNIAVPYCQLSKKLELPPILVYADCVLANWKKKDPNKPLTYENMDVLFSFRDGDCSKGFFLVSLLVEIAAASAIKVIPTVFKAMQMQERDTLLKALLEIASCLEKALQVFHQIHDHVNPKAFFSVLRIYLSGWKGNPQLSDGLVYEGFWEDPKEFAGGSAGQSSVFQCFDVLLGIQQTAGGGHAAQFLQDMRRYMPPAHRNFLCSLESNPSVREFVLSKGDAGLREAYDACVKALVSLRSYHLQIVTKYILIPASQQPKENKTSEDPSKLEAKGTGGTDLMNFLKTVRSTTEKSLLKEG
Description: In the present disclosure, IFN-γ-induced IDO enzyme expression in HeLa cells were used as a model to detect the IDO enzymatic inhibitory activity of the compound at the cellular level. HeLa cells are human cervical cancer cell lines and can up-regulate the expression of endogenous IDO enzymes under the induction of human IFN-γ. The cell supernatant can be subjected to detection of the enzyme-catalyzed product kynurenine by adding the substrate L-tryptophan to the cell culture solution. […] Recombinant human IFN-γ cytokine purchased from Sangon Biotech, Phenol red-free DMEM for cell culture purchased from Gibco. […] The cells were further cultured for 48 hours and detected. (2) 200 μl of the supernatant from the culture well was pipetted, 40 μl of a pre-formulated 30% (w/v) trichloroacetic acid solution was added, allowed to react at 65° C. for 20 minutes, and then centrifuged at 12,000 rpm for 15 minutes. (3) 100 μl of the supernatant after centrifugation was pipetted and added into a 96-well plate, an equal volume of 2% p-dimethylaminobenzaldehyde in glacial acetic acid was added, and they were mixed well and allowed to stand at room temperature for 10 minutes. (4) A microplate reader (ELX800NB) was used to detect the color signal of each well, and the detection wavelength was 492 nm.

[2] = target: T2, Recombinant human IDO enzyme (IDO1 enzyme) (Homo sapiens, UniProt P14902); assay: In vitro IDO enzymatic activity assay (kynurenine colour reaction, 492 nm); format: biochemical; conditions: for inhibition at 0.2 µM: tested compound concentration 200 nM, recombinant human IDO1, read-out: IDO Enzymatic Inhibition Rate (%) (200 nM); for IC50: recombinant human IDO enzyme
T2 construct: purchased BPS Bioscience, USA
T2 sequence (P14902 whole entry): as above
Procedure: The basic principle of the in vitro IDO enzymatic activity detection is to use the IDO enzyme to metabolize the substrate L-tryptophan to produce the product kynurenine in an in vitro enzyme-catalyzed reaction system. The kynurenine is yellow in color reaction with p-dimethylaminobenzaldehyde in glacial acetic acid, and the absorbance value was measured at 492 nm on a microplate reader. The concentration of the product kynurenine in the sample is calculated by comparison to a standard curve of kynurenine with a known concentration.
Recombinant human IDO enzyme (IDO1 enzyme) was purchased from BPS Bioscience, USA.
(3) Control reactions were set up at the same time the detection reaction was carried out. including 0 inhibition positive control with no tested compound added and 0 enzyme negative control with no enzyme added. All tests were run in duplicate.
(4) After the enzymatic reaction was completed, 40 μl of a pre-formulated 30% (w/v) trichloroacetic acid solution was added, and reacted at 65° C. for 20 minutes, followed by centrifugation at 12,000 rpm for 15 minutes.
(5) 100 μl of the supernatant after centrifugation was pipetted and added to a 96-well plate. An equal volume of 2% p-dimethylaminobenzaldehyde in glacial acetic acid was added, well mixed, and allowed to stand at room temperature for 10 minutes.
(6) A microplate reader (ELX800NB) was used to detect the color signal of each well with a detection wavelength of 492 nm.
In addition, the enzymatic inhibition rates were calculated for the tested compounds of different concentration gradients, and then the enzymatic half maximal inhibitory concentration (IC50) was calculated using the IC50 calculator.
According to the above-mentioned method of experiment, the compound of the present disclosure was subjected to an in vitro IDO enzymatic IC50 assay using NLG919 as a positive control compound.

Compound | inhibition at 1 µM [1] [%] | inhibition at 0.2 µM [2] [%] | IC50 [2] [nM] | EC50 [1] [nM]
CN(CC(=O)N1CCC(C(O)CC2c3ccccc3-c3cncn32)CC1)c1ccc2c(c1)oc1ccccc12 (stereo not shown) [Example 124, 2-(dibenzo[b,d]furan-3-yl(methyl)amino)-1-(4-(1-hydroxy-2(5H-imidazo[5,1-a]isoindol-5-yl)ethyl)piperidin-1-yl)ethyl-1-one] | 79 |  |  | 
O=C(COc1ccc(F)cc1)N1CCC(C(O)CC2c3ccccc3-c3cncn32)CC1 (stereo not shown) [Example 43, 2-(4-fluorophenoxy)-1-(4-(1-hydroxy-2-(5H-imidazo[5,1-a]isoindol-5-yl)ethyl)piperidin-1-yl)ethyl-1-one] | 89 | 83 |  | 
CN(CC(=O)N1CCC(C(O)CC2c3ccccc3-c3cncn32)CC1)c1cccc(Cl)c1 (stereo not shown) [Example 63] | 99 | 90 |  | 
O=C(COc1ncnc2[nH]cnc12)N1CCC(C(O)CC2c3ccccc3-c3cncn32)CC1 (stereo not shown) [Example 33, 2-((7H-purin-6-yl)oxy)-1-(4-(1-hydroxy-2-(5H-imidazo[5,1-a]isoindol-5-yl)ethyl)piperidin-1-yl)ethyl-1-one] |  | 70 |  | 
CN(CC(=O)N1CCC(C(O)CC2c3ccccc3-c3cncn32)CC1)c1ccc(F)c(Cl)c1 (stereo not shown) [Example 68, 2-((3-chloro-4-fluorophenyl)(methyl)amino)-1-(4-(1-hydroxy-2-(5H-imidazo[5,1-a]isoindol-5-yl)ethyl)piperidin-1-yl)ethyl-1-one] | 98 | 87 |  | 
CN(CC(=O)N1CCC(C(O)CC2c3ccccc3-c3cncn32)CC1)c1ccccc1 (stereo not shown) [Example 59, 1-(4-(1-hydroxy-2-(5H-imidazo[5,1-a]isoindol-5-yl)ethyl)piperidin-1-yl)-2-(methyl(phenyl)amino)ethyl-1-one] | 92 | 83 | 159 | 169
O=C(COc1cccc(C(F)(F)F)c1)N1CCC(C(O)CC2c3ccccc3-c3cncn32)CC1 (stereo not shown) [Example 48, 2-(3-trifluoromethylphenoxy)-1-(4-(1-hydroxy-2-(5H-imidazo[5,1-a]isoindol-5-yl)ethyl)piperidin-1-yl)ethyl-1-one] | 99 | 89 |  | 
CN(CC(=O)N1CCC(C(O)CC2c3ccccc3-c3cncn32)CC1)c1ccc([N+](=O)[O-])cc1 (stereo not shown) [Example 105, 1-(4-(1-hydroxy-2-(5H-imidazo[5,1-a]isoindol-5-yl)ethyl)piperidin-1-yl)-2-(methyl(4-nitrophenyl)atnino)ethyl-1-one] | 91 | 84 |  | 
COc1cccc(N(C)CC(=O)N2CCC(C(O)CC3c4ccccc4-c4cncn43)CC2)c1 (stereo not shown) [Example 102, 2-((3-methoxyphenyl)(methyl)amino)-1-(4-(1-hydroxy-2-(5H-imidazo[5,1-a]isoindol-5-yl)ethyl)piperidin-1-yl)ethyl-1-one] | 95 | 85 |  | 
Cc1ccc(OCC(=O)N2CCC(C(O)CC3c4ccccc4-c4cncn43)CC2)cc1C (stereo not shown) [Example 46, 2-(3,4-dimethylphenoxy)-1-(4-(1-hydroxy-2-(5H-imidazo[5,1-a]isoindol-5-yl)ethyl)piperidin-1-yl)ethyl-1-one] | 93 | 83 |  | 
CN(CC(=O)N1CCC(C(O)CC2c3ccccc3-c3cncn32)CC1)c1ccccn1 (stereo not shown) [Example 109, 1-(4-(1-hydroxy-2-(5H-imidazo[5,1-a]isoindol-5-yl)ethyl)piperidin-1-yl)-2-(methyl(pyridin-2-yl)amino)ethyl-1-one] | 68 |  |  | 
O=C(COC1CCCCC1)N1CCC(C(O)CC2c3ccccc3-c3cncn32)CC1 (stereo not shown) [Example 50, 2-(cyclohexyloxy)-1-(4-(1-hydroxy-2-(5H-imidazo[5,1-a]isoindol-5-yl)ethyl)piperidin-1-yl)ethyl-1-one] | 69 | 66 |  | 
CN(CC(=O)N1CCC(C(O)CC2c3ccccc3-c3cncn32)CC1)c1ccc(C(F)(F)F)cc1 (stereo not shown) [Example 89, 1-(4-(1-hydroxy-2-(5H-imidazo[5,1-a]isoindol-5-yl)ethyl)piperidin-1-yl)-2-(methyl(4-trifluoromethylphenyl)amino)ethyl-1-one] | 85 | 68 |  | 
CN(CC(=O)N1CCC(C(O)CC2c3ccccc3-c3cncn32)CC1)c1cccc(C(F)(F)F)c1 (stereo not shown) [Example 94, 1-(4-(1-hydroxy-2-(5H-imidazo[5,1-a]isoindol-5-yl)ethyl)piperidin-1-yl)-2-(methyl(3-trifluoromethylphenyl)amino)ethyl-1-one] | 98 | 84 |  | 
O=C(COc1nc2ccccc2o1)N1CCC(C(O)CC2c3ccccc3-c3cncn32)CC1 (stereo not shown) [Example 37, 2-(benzo[d]oxazolin-2-yloxy)-1-(4-(1-hydroxy-2-(5H-imidazo[5,1-a]isoindol-5-yl)ethyl)piperidin-1-yl)ethyl-1-one] | 97 | 83 |  | 
O=C(COc1ccc(F)c(Cl)c1)N1CCC(C(O)CC2c3ccccc3-c3cncn32)CC1 (stereo not shown) [Example 39, 2-(3-chloro-4-fluorophenoxy)-1-(4-(1-hydroxy-2-(5H-imidazo[5,1-a]isoindol-5-yl)ethyl)piperidin-1-yl)ethyl-1-one] | 98 | 90 |  | 
Cc1ccc(N(C)CC(=O)N2CCC(C(O)CC3c4ccccc4-c4cncn43)CC2)cc1C (stereo not shown) [Example 77, 2-((3,4-dimethylphenyl)(methyl)amino)-1-(4-(1-hydroxy-2-(5H-imidazo[5,1-a]isoindol-5-yl)ethyl)piperidin-1-yl)ethyl-1-one] | 95 | 82 |  | 
CN(CC(=O)N1CCC(C(O)CC2c3ccccc3-c3cncn32)CC1)c1ccc(C#N)cc1 (stereo not shown) [Example 98] | 83 | 81 |  | 
O=C(COc1ccc2[nH]ccc2c1)N1CCC(C(O)CC2c3ccccc3-c3cncn32)CC1 (stereo not shown) [Example 26, 2-((1H-indol-5-yl)oxy)-1-(4-(1-hydroxy-2-(5H-imidazo[5,1-a]isoindol-5-yl)ethyl)piperidin-1-yl)-ethyl-1-one] | 92 | 89 |  | 
O=C(COc1cccc(Cl)c1)N1CCC(C(O)CC2c3ccccc3-c3cncn32)CC1 (stereo not shown) [Example 41, 2-(3-chlorophenoxy)-1-(4-(1-hydroxy-2-(5H-imidazo[5,1-a]isoindol-5-yl)ethyl)piperidin-1-yl)ethyl-1-one] | 99 | 92 |  | 
O=C(COc1ccc2[nH]c3ccccc3c2c1)N1CCC(C(O)CC2c3ccccc3-c3cncn32)CC1 (stereo not shown) [Example 17, 2-((9H-carbazol-3-yl)oxy)-1-(4-(1-hydroxy-2-(5H-imidazo[5,1-a]isoindol-5-yl)ethyl)piperidin-1-yl)ethyl-1-one] | 93 | 85 |  | 
O=C(CNc1ccccc1)N1CCC(C(O)CC2c3ccccc3-c3cncn32)CC1 (stereo not shown) [Example 85, 1-(4-(1-hydroxy-2-(5H-imidazo[5,1-a]isoindol-5-yl)ethyl)piperidin-1-yl)-2-(phenylamino)ethyl-1-one] | 84 | 65 | 144 | 312
CN(CC(=O)N1CCC(C(O)CC2c3ccccc3-c3cncn32)CC1)c1ccc2ncccc2c1 (stereo not shown) [Example 113, 1-(4-(1-hydroxy-2-(5H-imidazo[5,1-a]isoindol-5-yl)ethyl)piperidin-1-yl)-2-(methyl(quinolin-6-yl)amino)ethyl-1-one] | 74 | 75 |  | 
O=C(COc1ccc2oc3ccccc3c2c1)N1CCC(C(O)CC2c3ccccc3-c3cncn32)CC1 (stereo not shown) [Example 57, 2-(dibenzo[b,d]furan-2-yloxy)-1-(4-(1-hydroxy-2-(5H-imidazo[5,1-a]isoindol-5-yl)ethyl)piperidin-1-yl)ethyl-1-one] | 91 | 88 |  | 

From patent US10604529B2, “Fused imidazole compound having indoleamine 2,3-dioxygenase inhibitory activity” (SHENZHEN CHIPSCREEN BIOSCIENCES CO., LTD., priority 2016, dated 2020)
